Measured values as given in patent publication US8652525B2, “NSAID delivery from polyarylates” (TYRX, Inc., priority 2008, dated 2014).

Legend:
[1] = p(10% DT, DTE succinate) solvent cast film, 20% loading
Method: 1 ml of the buffer was withdrawn periodically and run through the HPLC system described in Example 1.
Naproxen was formulated at 20% loading in a matrix of p(10% DT, DTE succinate) by solvent casting from methylene chloride and assessed for long-term release.

post-operative pain = conditions: after cesarean delivery; comparator ropivacaine continuous wound infiltration with intravenous (iv) diclofenac; cited from earlier work
[2] = Ketoprofen release studies from polyarylate films and microparticles in phosphate buffered saline, HPLC; conditions: for ketoprofen release rate: p(10% DT, DTE succinate) film; for ketoprofen released per day: p(10% DT, DTE succinate) solvent cast film
[3] = In vitro release profile of ketoprofen-loaded microparticles using dialysis tubes; assay type: physicochemical; conditions: p(10% DT, DTE succinate) microparticles 125-180 μm, 40% loading
Method: The p(10% DT, DTE succinate) was dried at 40° C. for 3 days and analyzed. 4.8 g of polymer was placed in a plastic beaker and topped with an excess of ethanol. The polymer was allowed to stand in ethanol at 50° C. for 2-3 hours. […] After overnight drying, the polymer/drug mixture was ground using a coffee grinder (overhead design). First, the polymer/drug mixture was cooled in liquid nitrogen. Then the polymer-drug mass was mixed with ground dry ice, added to the container of the grinder and ground at the highest speed for at least 5 min. The whole mixture of dry ice plus polymer/drug powder was transferred into a beaker, covered with Kimwipes™ and placed into a vacuum oven at 40° C. to dry overnight.
The in vitro release profile of the microparticles was determined using dialysis tubes.

[4] = given orally for systemic distribution; cited from earlier work
[5] = p(10% DT, DTE adipate), PBS pH 7.4, 37° C.
[6] = p(10% DT, DTE succinate) melt processed, compression molded film

## COc1ccc2cc([C@H](C)C(=O)O)ccc2c1 [Naproxen]
[1]
  drug released per day: 1 % per day
  release kinetics: zero order kinetics
  time until release is complete: about 3 months

## O=C(O)Cc1ccccc1Nc1c(Cl)cccc1Cl [diclofenac]
post-operative pain
  efficacy of continuous wound infiltration versus comparator: more effective

## CC(C(=O)O)c1cccc(C(=O)c2ccccc2)c1 (centres unmarked) [ketoprofen]
[2]; DTO polymers, PBS pH 7.4, 37° C.
  ketoprofen release mechanism (shape of the release curve): diffusion controlled
[2]; microparticles milled from compression molded p(10% DT, DTE succinate) film, all sizes
  ketoprofen release kinetics: fairly linear release
[2]; microparticles milled from compression molded p(10% DT, DTE succinate) film, largest particles (>500 microns)
  time until ketoprofen release is completed: about 60 days
[2]; microparticles milled from compression molded p(10% DT, DTE succinate) film, smallest particles (212 to 425 microns)
  time until ketoprofen release is completed: about 40 days
[2]; p(10% DT, DTE adipate), after initial burst, PBS pH 7.4, 37° C.
  ketoprofen release kinetics: approximately zero order kinetics
[2]; [5]
  duration of ketoprofen release: 2 weeks
  initial burst of ketoprofen release: 20%
[2]; HMW polymer (94,000)
  ketoprofen release rate: about 3 % per day
[2]; LMW polymer (67,800)
  ketoprofen release rate: about 5 % per day
[2]; [6]
  ketoprofen release kinetics: zero order kinetics
  rate of ketoprofen release: 1.3 % per day
[2]; 10% loading, PBS pH 7.4, 37° C.
  ketoprofen released per day: about 2 % per day
[2]; 20% loading, PBS pH 7.4, 37° C.
  ketoprofen released per day: 5 % per day
[2]; 30% loading, PBS pH 7.4, 37° C.
  ketoprofen released per day: 6 % per day
[2]; 40% loading, PBS pH 7.4, 37° C.
  ketoprofen released per day: about 8 % per day
[2]; p(10% DT, DTE succinate) solvent cast films, all four loadings 10%, 20%, 30%, 40%
  ketoprofen release kinetics: zero order kinetics
[3]
  ketoprofen release after 6 days: 100%
  ketoprofen released within 24 hours: About 50%
[4]
  effective plasma concentration range: 1,000-4,000 ng/mL
